Where two headings read alike, the source gives them in different places.
Tested on: adhesion of U937 cells to HUVEC stimulated by IL-1β or TNFα
Assay: Inhibitory effect on cell adhesion (U937 cells adhering to stimulated HUVEC)
Type: cell-based
Details: Homo sapiens, compound at 1 μM
Protocol: This test was conducted by reference to the method of Ross et al. (J. Biol. Chem., 267, 8537-8543 (1992)). More specifically, after human umbilical venous endothelial cells (HUVEC) were cultured on a 48-well plate to confluent growth, IL-1β or TNFα was added thereto. Upon elapsed time of 5 hours after the addition, U937, which is a human monocytic/histocytic cell fluorescence-labeled with PKH2 (product of Dainippon Pharmaceutical Co., Ltd.), was added in a proportion of 1×10^6 cells per well. After the plate was left at rest at room temperature for 1 hour, unadhered U937 was washed out and lysed in 1% Triton X-100 to measure a remaining fluorescence intensity (excitation wavelength: 480 nm; measuring wavelength: 530 nm). HUVEC and U937 were cultured in EGM-2 (product of Sanko Junyaku K.K.) and 10% FCS-containing RPMI1640, respectively. Each test agent was added to HUVEC upon the addition of IL-1β or TNFα and to U937 24 hours prior to the cell adhesion test. The inhibitory activity was calculated out according to the equation [100-(C−B)/(A−B)×100 (%)], wherein A is the number of U937 cells adhered to HUVEC stimulated by IL-1β or TNFα when no test agent was added, B is the number of U937 cells adhered to HUVEC not stimulated by IL-1β or TNFα when no test agent was added, and C is the number of U937 cells adhered to HUVEC stimulated by IL-1β or TNFα when the test agent was added. As control compounds, Test Compound 1 described in Japanese Patent Application Laid-Open No. 9-143075 and dilazep described in Japanese Patent Application Laid-Open No. 11-92382 were simultaneously evaluated.

[1] = HUVEC stimulated by IL-1β, read-out: Percent inhibition (%) Stimulation by IL-1β
[2] = HUVEC stimulated by TNFα, read-out: Percent inhibition (%) Stimulation by TNFα

SMILES	inhibition at 1 µM [1] [%]	inhibition at 1 µM [2] [%]
COc1cc(-c2nc(C)c(CN3CCCN(Cc4sc(-c5cc(OC)c(OC)c(OC)c5)nc4C)CC3)s2)cc(OC)c1OC [Example 11, N,N′-bis[[4-Methyl-2-(3,4,5-trimethoxy-phenyl)thiazol-5-yl]methyl]homopiperazine Dimaleate]	33	53
COc1cc(-c2cc(CN3CCN(Cc4cc(-c5cc(OC)c(OC)c(OC)c5)n(Cc5ccccc5)n4)CC3)nn2Cc2ccccc2)cc(OC)c1OC [Example 16, N,N′-bis[[1-Benzyl-5-(3,4,5-trimethoxy-phenyl)pyrazol-3-yl]methyl]piperazine]	30	51
COc1cc(-c2nc(CCCN3CCCN(CCCc4csc(-c5cc(OC)c(OC)c(OC)c5)n4)CC3)cs2)cc(OC)c1OC [Example 6, N,N′-bis[3-(2-(3,4,5-Trimethoxyphenyl)-thiazol-4-yl)propyl]homopiperazine]	54	45
COc1cc(C(=O)OCCCN2CCCN(CCCOC(=O)c3cc(OC)c(OC)c(OC)c3)CC2)cc(OC)c1OC [Dilazep, dilazep, reference compound]	0	12
COc1cc(C(=O)Nc2nc(CN3CCCN(Cc4csc(NC(=O)c5cc(OC)c(OC)c(OC)c5)n4)CC3)cs2)cc(OC)c1OC [Example 9, N,N′-bis[[2-(3,4,5-Trimethoxybenzamido)-thiazol-4-yl]methyl]homopiperazine]	40	50
COc1cc(C(=O)Nc2nc(CN3CCN(Cc4csc(NC(=O)c5cc(OC)c(OC)c(OC)c5)n4)CC3)cs2)cc(OC)c1OC [Example 8, N,N′-bis[[2-(3,4,5-Trimethoxybenzamido)-thiazol-4-yl]methyl]piperazine]	64	58
COc1cc(C#Cc2nc(CN3CCCN(Cc4csc(C#Cc5cc(OC)c(OC)c(OC)c5)n4)CC3)cs2)cc(OC)c1OC [Example 7, N,N′-bis[[2-(3,4,5-Trimethoxyphenylethynyl)-thiazol-4-yl]methyl]homopiperazine]	46	60

— patent US6472386B1, “Cyclic diamine compound with 5-membered ring groups” (Kowa Co., Ltd., priority 2001, dated 2002)
